The values below come from patent US20160115189A1, “PARASITICIDAL COMPOUNDS, METHODS, AND FORMULATIONS” (ELI LILLY AND COMPANY, priority 2013, published 2016).

SMILES strings stand for the structures.

In the assay the test system is adult brown tick (Rhipicephalus sanguineus). Kind of assay: Assay 5: adult brown tick infestations on dogs. It counts as in vivo, Rhipicephalus sanguineus on beagle dogs. The note with it: 10 mg/kg topical spot-on. The procedure: The total number of live parasites present on each dog is determined for each interval, and this number is transformed using the natural logarithm transformation plus one (Ln count+1); addition of one to each count served to adjust for counts that are zero. Geometric mean (GM) group tick and flea counts are obtained via back-transformation of group mean transformed counts and subtracting one. The negative control group is used for comparison to treated groups for the calculation of percent efficacy (% reduction in live parasite counts). GM percent efficacy of treatments is calculated using the following formula: […]
The therapeutic (knockdown) and residual efficacy of the Example 1-4 compounds, when administered via topical spot-on at 10 mg/kg, is evaluated against adult brown tick (Rhipicephalus sanguine us) infestations on dogs. Twenty (20) beagle dogs are allocated to either an untreated, negative control group or one of four treated groups (n=4 dogs per group). Dogs are infested with approximately 50 unfed, adult R. sanguineus ticks on Days −1, 5, 12, 19 and 28. On Day 0, dogs are treated with Example 1-4 compound formulations (each, 50 mg/ml of technical active dissolved in a vehicle solution of propylene carbonate, benzyl alcohol, and isopropyl myristate), applied via topical spot-on in a volume so as to achieve a point dose of 10 mg/kg. Tick counts and classification are conducted on Days 2, 7, 14, 21 and 30. GM percent efficacy of treatments against ticks is calculated using the formula in Assay 3.

Turning to `CC[C@H]1CCC[C@H](NC(=O)c2ccncn2)[C@@H](C)C(=O)C2=C[C@@H]3[C@@H](C=C[C@@H]4C[C@@H](O[C@@H]5O[C@@H](C)[C@H](OC)C(OC)[C@H]5OC)C[C@@H]34)[C@@H]2CC(=O)O1` (stereo partly drawn) [Example 2, N-((2R,3aS,5aR,5bS,9S,14R,16aS,16bR)-9-ethyl-14-methyl-7,15-dioxo-2-(((2R,3R,5S,6S)-3,4,5-trimethoxy-6-methyltetrahydro-2H-pyran-2-yl)oxy)-2,3,3a,5a,5 b,6,7,9,10,11,12,13,14,15,16a,16b-hexadecahydro-1H-as-indaceno[3,2-d][1]oxacyclododecin-13-yl)pyrimidine-4-carboxamide], the GM percent efficacy result is given as “(53.80)” (Day 2, R. sanguineus); “(99.12)” (Day 7, R. sanguineus); “(73.29)” (Day 14, R. sanguineus); “(76.46)” (Day 21, R. sanguineus); “(33.99)” (Day 30, R. sanguineus). For the same compound, the “Geometric Mean Group Live Tick Counts” value by setting is: (Day 2, R. sanguineus) 14.55; (Day 7, R. sanguineus) 0.19; (Day 14, R. sanguineus) 5.82; (Day 21, R. sanguineus) 7.91; (Day 30, R. sanguineus) 17.31.

For `CC[C@H]1CCC[C@H](NC(=O)c2cc(C)on2)[C@@H](C)C(=O)C2=C[C@@H]3[C@@H](C=C[C@@H]4C[C@@H](O[C@@H]5O[C@@H](C)[C@H](OC)C(OC)[C@H]5OC)C[C@@H]34)[C@@H]2CC(=O)O1` (stereo partly drawn) [Example 4, N-((2R,3aS,5aR,5bS, 9S,13S,14R,16aS, 16bR)-9-ethyl-14-methyl-7,15-dioxo-2-(((2R,3R,5S,6S)-3,4,5-trimethoxy-6-methyltetrahydro-2H-pyran-2-yl)oxy)-2,3,3a,5a,5b,6,7,9, 10,11,12,13,14,15, 16a,16b-hexadecahydro-1H-as-indaceno[3,2-d][1]oxacyclododecin-13-yl)-5-methyl-isoxazole-3-carboxamide], the GM percent efficacy entry is recorded as “(67.71)” (Day 2, R. sanguineus); “(96.60)” (Day 7, R. sanguineus); “(82.25)” (Day 14, R. sanguineus); “(81.13)” (Day 21, R. sanguineus); “(26.88)” (Day 30, R. sanguineus). In addition, the “Geometric Mean Group Live Tick Counts” value worked out at 10.17 (Day 2, R. sanguineus); 0.73 (Day 7, R. sanguineus); 3.86 (Day 14, R. sanguineus); 6.34 (Day 21, R. sanguineus); 19.17 (Day 30, R. sanguineus).

Turning to `CC[C@H]1CCC[C@H](NC(=O)c2ccncc2)[C@@H](C)C(=O)C2=C[C@@H]3[C@@H](C=C[C@@H]4C[C@@H](O[C@@H]5O[C@@H](C)[C@H](OC)C(OC)[C@H]5OC)C[C@@H]34)[C@@H]2CC(=O)O1` (stereo partly drawn) [Example 3, N-((2R,3aS,5aR,5bS, 9S,13S,14R,16aS, 16bR)-9-ethyl-14-methyl-7,15-dioxo-2-(((2R,3R,5S,6S)-3,4,5-trimethoxy-6-methyltetrahydro-2H-pyran-2-yl)oxy)-2,3,3a,5a,5b,6,7,9,10,11,12,13,14, 15,16a,16b-hexadecahydro-1H-as-indaceno[3,2-d][1]oxacyclododecin-13-yl)isonicolina-mide], the GM percent efficacy result (Day 2, R. sanguineus) is “(62.52)”; the GM percent efficacy entry (Day 7, R. sanguineus) was “(85.01)”; the GM percent efficacy entry (Day 14, R. sanguineus) is “(76.50)”; the GM percent efficacy entry (Day 21, R. sanguineus) is “(82.44)”; the GM percent efficacy result (Day 30, R. sanguineus) is given as “(41.02)”. The “Geometric Mean Group Live Tick Counts” value is 11.80 (Day 2, R. sanguineus); 3.23 (Day 7, R. sanguineus); 5.12 (Day 14, R. sanguineus); 5.90 (Day 21, R. sanguineus); 15.47 (Day 30, R. sanguineus).
